{"source": "patent US8940936B2", "about": "“Aryloxy phenoxy acrylic compound having HIF-1 inhibition activity, method for preparing same, and pharmaceutical composition containing same as an active ingredient” (Korea Research Institute of Bioscience and Biotechnology, priority 2010, dated 2015)", "key": {"[1]": {"assay": "Mouse weight changes and symptoms, intraperitoneal administration (B16F10 metastasis experiment)", "type": "in vivo", "conditions": "for Mouse weight changes (%): ip, Example 1 20 mg/kg/day, topotecan 2 mg/kg/2 day", "experimental": "(§1) Particularly, the experimental group composed of 6 female mice (C57BL) at 6 weeks was transplanted with B16F10 melanoma cell line. After the cancer cells were grown, the mice were treated with the compound of formula 1 via intraperitoneal injection at the dose of […] every day for 12 days. Inhibition of angiogenesis and the tumor growth were observed. In the meantime, the control group was treated with purified water every day. The comparative group was treated with topotecan at the dose of 2 mg/kg once every other day. Weight changes and cancer metastasis were measured and the results are shown in Table 9, Table 10, and FIG. 10."}, "[2]": {"test_system": "VEGF (vascular endothelial growth factor A)", "assay": "Expression of HIF-1 target gene VEGF (RT-PCR, HCT116)", "type": "cell-based, human", "experimental": "To investigate HIF-1 inhibition activity of the compound of the present invention, the inhibition of VEGF and EPO, two most representative HIF-1 target genes, by the compound of formula 1 prepared in example 1 was measured. Particularly, the colon cancer cell line HCT116 was used for the measurement as follows.\nThe human colon cancer cell line HCT116 was seeded in cell culture vessel at the density of 2×10^5 cell/ml, followed by culture for 24 hours. The cells were pretreated in hypoxic condition (oxygen 1%; nitrogen 94%; carbon dioxide 5%) for 4 hours to induce the accumulation of HIF-1α. The cells were treated with the compound of formula 1 prepared in example 1 at the concentrations of 0, 10, and 20 μM, followed by culture for 12 hours in hypoxic condition. Then, mRNA was extracted by using trizol. To compare the expression with that of HIF-1 target gene treated with the compound prepared in comparative example 1, the control was treated with the compound of comparative example 1 at the concentrations of 0, 10, 15, and 20 μM. From the extracted mRNA, cDNA was synthesized by using RT-PCR kit (Invitrogen). The amounts of mRNAs of the HIF-1α target genes VEGF (vascular endothelial growth factor A) and EPO (erythropoietin) were measured by using RT-PCR and real-time RT-PCR. […]"}, "[3]": {"assay": "Mouse weight changes and symptoms, repeated intravenous administration (Caki-1 model)", "type": "in vivo", "conditions": "for Mouse weight changes (%): iv, Example 1 20 mg/kg/day, topotecan 2 mg/kg/day", "experimental": "Female nude mice at 6 weeks (BALB/c nu/nu, Charles River) were raised in a germ-free facility where temperature and humidity were maintained at proper levels during the whole experimental period. After anesthetizing each mouse, the human kidney cancer cell line Caki-1 was transplanted in kidney tissues at the density of 4×10^7 cells/mouse, and then the opened kidney was sealed with surgical clips. After transplanting the kidney cancer cell line, the tumor volume was measured with calipers. When the tumor volume reached 52.7 mm^3, the compound of the present invention prepared in example 1 was treated thereto. Particularly, for the experimental group, the compound of example 1 was dissolved in the solvent composed of cremophor (10%), DMAC (10%), and pH 10 buffer […], which is indicated as ‘solvent B’ hereinafter, at the concentration of 20 mg/kg. The prepared compound solution was intravenously administered to the experimental group mice once a day at the dose of […]. The control was treated with the solvent B only without the compound once a day via oral administration at the dose of 15 ml/kg. The comparative group was treated with the solvent B containing topotecan (2 mg/kg) via intravenous injection once a day at the dose of 15 ml/kg. The weight and the tumor volume were measured once a day on day 0, 2, 4, 7, 9, 11, and 14.\nTumor volume was calculated by the mathematical formula 1 of Experimental Example 4. To investigate the toxicity according to the repeated intravenous administration of the compound of example 1, mouse weight changes were observed and presented in Table 5. Inhibition rate (%) in Table 6 was calculated by the mathematical formula 2, which indicates the inhibition of tumor growth by the compound presented by %."}, "[4]": {"assay": "Mouse weight changes and symptoms, repeated intravenous administration (HCT116 model)", "type": "in vivo", "conditions": "for Mouse weight changes (%): iv once a day, Example 1 30 mg/kg, topotecan 2 mg/kg", "experimental": "Female nude mice at 6 weeks (BALB/c nu/nu, Charles River) were raised in a germ-free facility where temperature and humidity were maintained at proper levels during the whole experimental period. After anesthetizing each mouse, the human rectal cancer cell line HCT116 was transplanted in rectal tissues at the density of 4×10^7 cells/mouse, and then the opened rectum was sealed with surgical clips. After transplanting the rectal cancer cell line, the tumor volume was measured with calipers. When the tumor volume reached 54.5 mm^3, the compound of the present invention prepared in example 1 was treated thereto. Particularly, for the experimental group, the compound of example 1 was dissolved in the solvent composed of saline (80%), DMAC (10%), and tween 80 (10%), which is indicated as ‘solvent A’ hereinafter, at the concentration of 30 mg/kg. The prepared compound solution was intravenously administered to the experimental group mice once a day at the dose of […]. The control was treated with the solvent A only without the compound once a day via oral administration at the dose of 15 ml/kg. The comparative group was treated with the solvent A containing topotecan (2 mg/kg) via intravenous injection once a day at the dose of 15 ml/kg. The weight and the tumor volume were measured once a day on day 0, 2, 3, 4, 5, 6, and 8.\nTumor volume was calculated by the following mathematical formula 1. To investigate the toxicity according to the repeated intravenous administration of the compound of example 1, mouse weight changes were observed and presented in Table 3. Inhibition rate (%) in Table 4 was calculated by the following mathematical formula 2, which indicates the inhibition of tumor growth by the compound presented by %. Tumor Volume(mm^3)=(major axis length of tumor cells, mm)×(minor axis length of tumor cells, mm)^2×0.5 [Mathematical Formula 1] Inhibition Rate (%)=[(Tumor Volume of Control−Tumor Volume of Experimental Group)/(Tumor Volume of Control)]×100 [Mathematical Formula 2]"}, "[5]": {"test_system": "B16F10 melanoma cell line", "assay": "Cancer metastasis inhibition activity, B16F10 melanoma lung colonies in C57BL mice", "type": "in vivo, mouse", "conditions": "Example 1 20 mg/kg/day, topotecan 2 mg/kg/2 day; for Metastasis colony number: day 12, ip; for Metastasis inhibition rate (%): day 12, vs control", "experimental": "as §1\nAs shown in Table 10 and FIG. 10, the mice were sacrificed on the last day of experiment (day 12) and then cancer colonies in lung were counted by the naked eye."}}, "note": "“And” between values parts separate entries of the source, which are not always exact repeats. Identical values can stand only once."}
{"smiles": "COC(=O)c1cccc(NC(=O)/C=C/Oc2ccc(C34CC5CC(CC(C5)C3)C4)cc2)c1", "note": "[Example 1, (E)-3-[3-(4-Adamantan-1-yl-phenoxy)-acryloylamino]-benzoic acid methyl ester]", "values": [{"measurement": "body weight on the final day of observation (day 12) compared with control", "setting": "[1]; 20 mg/kg ip, C57BL mice", "value": "not significantly reduced"}, {"measurement": "symptoms during repeated intraperitoneal injection", "setting": "[1]; 20 mg/kg ip, C57BL mice, 12 days", "value": "no specific symptom was observed"}, {"measurement": "Mouse weight changes (%)", "setting": "[1]; day 0", "value": "100.0 ± 0.0", "unit": "%"}, {"measurement": "Mouse weight changes (%)", "setting": "[1]; day 2", "value": "98.7 ± 3.4", "unit": "%"}, {"measurement": "Mouse weight changes (%)", "setting": "[1]; day 5", "value": "101.2 ± 4.6", "unit": "%"}, {"measurement": "Mouse weight changes (%)", "setting": "[1]; day 7", "value": "103.4 ± 3.8", "unit": "%"}, {"measurement": "Mouse weight changes (%)", "setting": "[1]; day 9", "value": "107.6 ± 2.8", "unit": "%"}, {"measurement": "Mouse weight changes (%)", "setting": "[1]; day 12", "value": "107.6 ± 3.3", "unit": "%"}, {"measurement": "expression of GAPDH", "setting": "[2]; internal control gene, HCT116, hypoxic condition", "value": "did not change"}, {"measurement": "expression of VEGF", "setting": "[2]; mRNA, HCT116, hypoxic condition, 0, 10, 20 μM, FIG. 5", "value": "inhibited the expressions of VEGF and EPO, the HIF-1 target genes, dose-dependently"}, {"measurement": "body weight on the final day of observation (day 14) compared with control", "setting": "[3]; 20 mg/kg iv, nude mice", "value": "not significantly reduced"}, {"measurement": "symptoms during repeated intravenous administration", "setting": "[3]; 20 mg/kg iv, nude mice", "value": "no specific symptom was observed"}, {"measurement": "Mouse weight changes (%)", "setting": "[3]; day 0", "value": "100.0 ± 0.0", "unit": "%"}, {"measurement": "Mouse weight changes (%)", "setting": "[3]; day 2", "value": "104.7 ± 1.7", "unit": "%"}, {"measurement": "Mouse weight changes (%)", "setting": "[3]; day 4", "value": "105.3 ± 2.2", "unit": "%"}, {"measurement": "Mouse weight changes (%)", "setting": "[3]; day 7", "value": "105.5 ± 3.1", "unit": "%"}, {"measurement": "Mouse weight changes (%)", "setting": "[3]; day 9", "value": "106.6 ± 4.9", "unit": "%"}, {"measurement": "Mouse weight changes (%)", "setting": "[3]; day 11", "value": "107.3 ± 6.8", "unit": "%"}, {"measurement": "Mouse weight changes (%)", "setting": "[3]; day 14", "value": "109.5 ± 6.4", "unit": "%"}, {"measurement": "body weight on day 8 compared with control", "setting": "[4]; 30 mg/kg iv, nude mice", "value": "no significant weight loss"}, {"measurement": "symptoms during repeated intravenous administration", "setting": "[4]; 30 mg/kg iv, nude mice", "value": "no specific symptom was observed"}, {"measurement": "Mouse weight changes (%)", "setting": "[4]; day 0", "value": "100.0 ± 0.0", "unit": "%"}, {"measurement": "Mouse weight changes (%)", "setting": "[4]; day 2", "value": "96.5 ± 2.9", "unit": "%"}, {"measurement": "Mouse weight changes (%)", "setting": "[4]; day 3", "value": "94.7 ± 2.3", "unit": "%"}, {"measurement": "Mouse weight changes (%)", "setting": "[4]; day 4", "value": "96.0 ± 3.5", "unit": "%"}, {"measurement": "Mouse weight changes (%)", "setting": "[4]; day 5", "value": "100.3 ± 1.5", "unit": "%"}, {"measurement": "Mouse weight changes (%)", "setting": "[4]; day 6", "value": "101.4 ± 2.5", "unit": "%"}, {"measurement": "Mouse weight changes (%)", "setting": "[4]; day 8", "value": "99.9 ± 2.3", "unit": "%"}, {"measurement": "Metastasis colony number", "setting": "[5]", "value": "207 and 207.0 ± 47.5"}, {"measurement": "Metastasis inhibition rate (%)", "setting": "[5]", "value": 32.5, "unit": "%"}]}
{"smiles": "CC[C@@]1(O)C(=O)OCc2c1cc1n(c2=O)Cc2cc3c(CN(C)C)c(O)ccc3nc2-1", "note": "[topotecan, reference compound]", "values": [{"measurement": "Mouse weight changes (%)", "setting": "[1]; day 0", "value": "100.0 ± 0.0", "unit": "%"}, {"measurement": "Mouse weight changes (%)", "setting": "[1]; day 2", "value": "101.0 ± 2.9", "unit": "%"}, {"measurement": "Mouse weight changes (%)", "setting": "[1]; day 5", "value": "103.5 ± 6.1", "unit": "%"}, {"measurement": "Mouse weight changes (%)", "setting": "[1]; day 7", "value": "104.0 ± 4.6", "unit": "%"}, {"measurement": "Mouse weight changes (%)", "setting": "[1]; day 9", "value": "104.3 ± 6.2", "unit": "%"}, {"measurement": "Mouse weight changes (%)", "setting": "[1]; day 12", "value": "103.7 ± 5.5", "unit": "%"}, {"measurement": "Mouse weight changes (%)", "setting": "[3]; day 0", "value": "100.0 ± 0.0", "unit": "%"}, {"measurement": "Mouse weight changes (%)", "setting": "[3]; day 2", "value": "104.7 ± 1.9", "unit": "%"}, {"measurement": "Mouse weight changes (%)", "setting": "[3]; day 4", "value": "103.8 ± 3.8", "unit": "%"}, {"measurement": "Mouse weight changes (%)", "setting": "[3]; day 7", "value": "103.4 ± 2.6", "unit": "%"}, {"measurement": "Mouse weight changes (%)", "setting": "[3]; day 9", "value": "101.8 ± 3.6", "unit": "%"}, {"measurement": "Mouse weight changes (%)", "setting": "[3]; day 11", "value": "103.0 ± 3.6", "unit": "%"}, {"measurement": "Mouse weight changes (%)", "setting": "[3]; day 14", "value": "102.9 ± 5.3", "unit": "%"}, {"measurement": "Mouse weight changes (%)", "setting": "[4]; day 0", "value": "100.0 ± 0.0", "unit": "%"}, {"measurement": "Mouse weight changes (%)", "setting": "[4]; day 2", "value": "101.7 ± 1.0", "unit": "%"}, {"measurement": "Mouse weight changes (%)", "setting": "[4]; day 3", "value": "101.8 ± 1.1", "unit": "%"}, {"measurement": "Mouse weight changes (%)", "setting": "[4]; day 4", "value": "103.2 ± 5.4", "unit": "%"}, {"measurement": "Mouse weight changes (%)", "setting": "[4]; day 5", "value": "99.1 ± 1.4", "unit": "%"}, {"measurement": "Mouse weight changes (%)", "setting": "[4]; day 6", "value": "98.7 ± 1.7", "unit": "%"}, {"measurement": "Mouse weight changes (%)", "setting": "[4]; day 8", "value": "95.6 ± 1.4", "unit": "%"}, {"measurement": "Metastasis colony number", "setting": "[5]", "value": "148.3 ± 49.4"}, {"measurement": "Metastasis inhibition rate (%)", "setting": "[5]", "value": 51.7, "unit": "%"}]}
